As usually defined, the IC50 is the midpoint of a concentration-inhibition curve. A lower IC50 goes with greater potency in that assay.

We go through 26 compounds from patent publication US20070049593A1 (priority 2004, published 2007).

Where a name gives a salt, the structure may show the parent alone.

This test deals with T1, HCV polymerase (Hepatitis C virus genotype 1b, UniProt P26663).
T1 construct: a region encoding NS5B (J Virol 1991 March, 65(3), 1105-13, 544 amino acids after deletion of 47 amino acids on the C-terminal); 6xHis (C); made in house; host or cells: Escherichia coli
T1 sequence (P26663 2420-2963): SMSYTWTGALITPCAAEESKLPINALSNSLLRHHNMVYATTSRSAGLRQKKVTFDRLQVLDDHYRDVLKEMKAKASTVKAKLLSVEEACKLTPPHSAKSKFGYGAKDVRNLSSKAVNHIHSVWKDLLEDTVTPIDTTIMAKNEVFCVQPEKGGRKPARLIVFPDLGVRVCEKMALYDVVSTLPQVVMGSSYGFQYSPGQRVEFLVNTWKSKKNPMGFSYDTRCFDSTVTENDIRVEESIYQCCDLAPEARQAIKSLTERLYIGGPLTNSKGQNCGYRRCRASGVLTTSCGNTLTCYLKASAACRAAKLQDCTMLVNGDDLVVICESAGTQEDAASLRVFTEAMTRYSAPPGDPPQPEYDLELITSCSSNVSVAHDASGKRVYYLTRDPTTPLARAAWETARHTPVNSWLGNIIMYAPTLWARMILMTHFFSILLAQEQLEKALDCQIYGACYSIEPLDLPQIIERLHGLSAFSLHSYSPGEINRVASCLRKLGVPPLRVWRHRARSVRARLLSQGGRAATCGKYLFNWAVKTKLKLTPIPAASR
As to the kind of experiment: biochemical. Set-up: species or system HCV BK strain. Put shortly: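 Recombinant HCV BK-strain NS5B (C-terminal 47 aa deleted, His6-tagged, E. coli), 0.5 μg/ml, run with 5 μg/ml in vitro-transcribed RNA template (polyU/3′X), ATP/GTP/CTP 50 μM, UTP 2 μM plus [3H]UTP, pH 7.5, 25° C, 90 min. TCA-precipitated RNA counted by scintillation; IC50 from activity with vs without compound.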

For `CN(C)CCN1CCn2c(c(C3CCCCC3)c3ccc(C(=O)O)cc32)-c2ccc(OCc3cccc(N)c3)cc21` [Example 1-578, 3-(3-aminobenzyloxy)-13-cyclohexyl-5-(2-dimethylaminoethyl)-6,7-dihydro-5H-benzo[5,6][1,4]diazepino[7,1-a]indole-10-carboxylic acid trihydrochloride], the IC50 was < 100 nM.
In the case of `COC(=O)c1ccc2nc(NC(=O)c3ccc4c(C5CCCCC5)c5n(c4c3)CCOc3ccccc3-5)[nH]c2c1` [Example 2-266, methyl 2-[(12-cyclohexyl-6,7-dihydro-5-oxa-7a-azadibenzo[a,e]azulene-9-carbonyl)amino]-3H-benzimidazole-5-carboxylate] it was 100 to 1000 nM; in that of `CCN(CCCCOC)C(=O)C(C)(C)NC(=O)c1ccc2c(C3CCCCC3)c3n(c2c1)CCOc1ccccc1-3` [Example 2-333, N-{1-[N-ethyl-N-(4-methoxybutyl)carbamoyl]-1-methylethyl}-12-cyclohexyl-6,7-dihydro-5-oxa-7a-azadibenzo[a,e]azulene-9-carboxamide], < 100 nM; in that of `CN(CCN1CCn2c(c(C3CCCCC3)c3ccc(C(=O)O)cc32)-c2ccccc21)C1CCOCC1` [Example 1-283, 13-cyclohexyl-5-{2-[N-methyl-N-(tetrahydropyran-4-yl)amino]ethyl}-6,7-dihydro-5H-benzo[5,6][1,4]diazepino[7,1-a]indole-10-carboxylic acid], < 100 nM.
As for `COC[C@](C)(NC(=O)c1ccc2c(C3CCCCC3)c3n(c2c1)CCOc1cc(OC)ccc1-3)C(=O)Nc1ccc(/C=C/C(=O)O)cc1` [Example 2-537, (E)-3-{4-((S)-2-[(12-cyclohexyl-3-methoxy-6,7-dihydro-5-oxa-7a-azadibenzo[a,e]azulene-9-carbonyl)amino]-3-methoxy-2-methylpropionylamino}phenyl)acrylic acid], the IC50 is < 100 nM.
Regarding `O=C(O)c1ccc2c(C3CCCCC3)c3n(c2c1)CCN(CCC1CCN(C2CCCC2)CC1)c1ccccc1-3` [Example 1-157, 13-cyclohexyl-5-[2-(1-cyclopentylpiperidin-4-yl)ethyl]-6,7-dihydro-5H-benzo[5,6][1,4]diazepino[7,1-a]indole-10-carboxylic acid dihydrochloride], the IC50 is < 100 nM.
In the case of `CC(=O)N1CCC(CCN2CCn3c(c(C4CCCCC4)c4ccc(C(=O)O)cc43)-c3ccccc32)CC1` [Example 1-92, 5-[2-(1-acetylpiperidin-4-yl)ethyl]-13-cyclohexyl-6,7-dihydro-5H-benzo[5,6][1,4]diazepino[7,1-a]indole-10-carboxylic acid monohydrochloride] it was < 100 nM; in that of `O=C(O)c1ccc2c(C3CCCCC3)c3n(c2c1)CCN(CCCN1CCCC1)c1cc(Cl)ccc1-3` [Example 1-269, 3-chloro-13-cyclohexyl-5-[3-(pyrrolidin-1-yl)propyl]-6,7-dihydro-5H-benzo[5,6][1,4]diazepino[7,1-a]indole-10-carboxylic acid dihydrochloride], < 100 nM; in that of `CCN1CCN(C(=O)CN(CC)c2cccc3c2OCCn2c-3c(C3CCCCC3)c3ccc(C(=O)O)cc32)CC1` [Example 2-301, 12-cyclohexyl-4-{N-ethyl-N-[2-(4-ethylpiperazin-1-yl)-2-oxoethyl]amino}-6,7-dihydro-5-oxa-7a-azadibenzo[a,e]azulene-9-carboxylic acid dihydrochloride], < 100 nM.
The figure for `O=C(Nc1ccc(O)cc1)c1ccc2c(C3CCCCC3)c3n(c2c1)CCOc1ccccc1-3` [Example 2-192, N-(4-hydroxyphenyl)-12-cyclohexyl-6,7-dihydro-5-oxa-7a-azadibenzo[a,e]azulene-9-carboxamide] is < 100 nM; for `O=C(O)c1ccc2c(C3CCCCC3)c3n(c2c1)CCN(CCCCN1CCOCC1)c1ccccc1-3` [Example 1-80, 13-cyclohexyl-5-[4-(morpholin-4-yl)butyl]-6,7-dihydro-5H-benzo[5,6][1,4]diazepino[7,1-a]indole-10-carboxylic acid dihydrochloride] it is < 100 nM.
The figure for `CCc1ccc2c(c1)N(CCN1CCCC1)CCn1c-2c(C2CCCCC2)c2ccc(C(=O)O)cc21` [Example 1-360, 13-cyclohexyl-3-ethyl-5-[2-(pyrrolidin-1-yl)ethyl]-6,7-dihydro-5H-benzo[5,6][1,4]diazepino[7,1-a]indole-10-carboxylic acid monohydrochloride] is < 100 nM; for `Cc1ccc2c(c1)N(CCN1CCCC(C(=O)N(C)C)C1)CCn1c-2c(C2CCCCC2)c2ccc(C(=O)O)cc21` (centres unmarked) [Example 1-545, 13-cyclohexyl-5-[2-(3-dimethylcarbamoylpiperidin-1-yl)ethyl]-3-methyl-6,7-dihydro-5H-benzo[5,6][1,4]diazepino[7,1-a]indole-10-carboxylic acid dihydrochloride] it is < 100 nM.
For the compound `COc1ccc2c(c1)OCCn1c-2c(C2CCCCC2)c2ccc(C(=O)N[C@@H](Cc3ccc(O)cc3)C(=O)NCCO)cc21` [Example 2-387, N—[(S)-1-(2-hydroxyethylcarbamoyl)-2-(4-hydroxyphenyl)ethyl]-12-cyclohexyl-3-methoxy-6,7-dihydro-5-oxa-7a-azadibenzo[a,e]azulene-9-carboxamide], the half-inhibitory concentration (IC50) is < 100 nM.
In the case of `Cc1ccc2c(c1)N(CCN1CCC(=O)N(C)CC1)CCn1c-2c(C2CCCCC2)c2ccc(C(=O)O)cc21` [Example 1-526, 13-cyclohexyl-3-methyl-5-[2-(4-methyl-5-oxo-1,4-diazepan-1-yl)ethyl]-6,7-dihydro-5H-benzo[5,6][1,4]diazepino[7,1-a]indole-10-carboxylic acid dihydrochloride] it was < 100 nM.
In the case of `Cc1nc(C(C)(C)NC(=O)c2ccc3c(C4CCCCC4)c4n(c3c2)CCOc2ccccc2-4)[nH]c1C` [Example 2-258, N-[1-(4,5-dimethyl-1H-imidazol-2-yl)-1-methylethyl]-12-cyclohexyl-6,7-dihydro-5-oxa-7a-azadibenzo[a,e]azulene-9-carboxamide] it was < 100 nM.
In the case of `O=C(O)c1ccc2c(C3CCCCC3)c3n(c2n1)CCN(CC(=O)N1CCOCC1)c1ccccc1-3` [Example 8-4, 12-cyclohexyl-5-[2-oxo-2-(morpholin-4-yl)ethyl]-6,7-dihydro-5H-5,7a,8-triazadibenzo[a,e]azulene-9-carboxylic acid dihydrochloride] it was < 100 nM; in that of `CC(C)(NC(=O)c1ccc2c(C3CCCCC3)c3n(c2c1)CCOc1ccccc1-3)c1nc2cc(Cl)ccc2[nH]1` [Example 2-199, N-[1-(5-chloro-1H-benzimidazol-2-yl)-1-methylethyl]-12-cyclohexyl-6,7-dihydro-5-oxa-7a-azadibenzo[a,e]azulene-9-carboxamide], < 100 nM; in that of `N#Cc1ccc2c(c1)N(CCN1CCCCC1)CCn1c-2c(C2CCCCC2)c2ccc(C(=O)O)cc21` [Example 1-490, 3-cyano-13-cyclohexyl-5-[2-(piperidin-1-yl)ethyl]-6,7-dihydro-5H-benzo[5,6][1,4]diazepino[7,1-a]indole-10-carboxylic acid monohydrochloride], < 100 nM.
As to `CC[N+](CC)(CC)Cc1ccc(CC(NC(=O)c2ccc3c(C4CCCCC4)c4n(c3c2)CCOc2cc(OC)ccc2-4)C(=O)OC)cc1` (centres unmarked) [Example 2-539, N-(4-{2-[(12-cyclohexyl-3-methoxy-6,7-dihydro-5-oxa-7a-azadibenzo[a,e]azulene-9-carbonyl)amino]-2-(methoxycarbonyl)ethyl}benzyl)-N,N,N-triethylammonium chloride], the 50% inhibitory concentration (IC50) is < 100 nM.
The figure for `CS(=O)(=O)Nc1ccc(N2CCOCC2)c(COc2ccc3c(c2)OCCn2c-3c(C3CCCCC3)c3ccc(C(=O)O)cc32)c1` [Example 2-17, 12-cyclohexyl-3-[5-methanesulfonylamino-2-(morpholin-4-yl)benzyloxy]-6,7-dihydro-5-oxa-7a-azadibenzo[a,e]azulene-9-carboxylic acid monohydrochloride] is < 100 nM.
In the case of `CCOC1CCCN(CCN2CCn3c(c(C4CCCCC4)c4ccc(C(=O)O)cc43)-c3ccc(C)cc32)C1` (centres unmarked) [Example 1-325, 13-cyclohexyl-5-[2-(3-ethoxypiperidin-1-yl)ethyl]-3-methyl-6,7-dihydro-5H-benzo[5,6][1,4]diazepino[7,1-a]indole-10-carboxylic acid monohydrochloride] it was < 100 nM.
The figure for `Cc1cccc2c1-c1c(C3CCCCC3)c3ccc(C(=O)O)cc3n1CCN2CCN1CCCCC1` [Example 1-241, 13-cyclohexyl-1-methyl-5-[2-(piperidin-1-yl)ethyl]-6,7-dihydro-5H-benzo[5,6][1,4]diazepino[7,1-a]indole-10-carboxylic acid dihydrochloride] is < 100 nM; for `CC(C)(C)OC(=O)N1CCC(CCN2CCn3c(c(C4CCCCC4)c4ccc(C(=O)O)cc43)-c3ccccc32)CC1` [Example 1-89, 5-[2-(1-tert-butoxycarbonylpiperidin-4-yl)ethyl]-13-cyclohexyl-6,7-dihydro-5H-benzo[5,6][1,4]diazepino[7,1-a]indole-10-carboxylic acid] it is < 100 nM.
For the compound `CS(=O)(=O)c1ccc(N2CCOCC2)c(COc2ccc3c(c2)NCCn2c-3c(C3CCCCC3)c3ccc(C(=O)O)cc32)c1` [Example 1-101, 13-cyclohexyl-3-[5-methanesulfonyl-2-(morpholin-4-yl)benzyloxy]-6,7-dihydro-5H-benzo[5,6][1,4]diazepino[7,1-a]indole-10-carboxylic acid dihydrochloride], the IC50 is < 100 nM.
In the case of `COC(=O)N1CCCN(CCN2CCn3c(c(C4CCCCC4)c4ccc(C(=O)O)cc43)-c3ccc(C)cc32)CC1` [Example 1-518, 13-cyclohexyl-5-[2-(4-methoxycarbonyl-1,4-diazepan-1-yl)ethyl]-3-methyl-6,7-dihydro-5H-benzo[5,6][1,4]diazepino[7,1-a]indole-10-carboxylic acid dihydrochloride] it was < 100 nM.
